The values that follow come from ChEMBL document CHEMBL5390317, “Novel Indane-Containing NBTIs with Potent Anti-Gram-Negative Activity and Minimal hERG Inhibition” (ACS Med Chem Lett, 2023).

One may read the MIC as the smallest concentration in the dilution series that meets the test's criterion for growth inhibition. As a reminder, the IC50 is the concentration that gives 50% inhibition. A high value points to lower potency. By inhibition is commonly meant the drop in the measured response relative to a control, in per cent. A low value points to little suppression. As usually defined, the IC20 is the point of the concentration-response curve where the effect stands at 20%. Lower therefore signals greater potency.

Data set [1] deals with Acinetobacter baumannii. Description: Antibacterial activity against Acinetobacter baumannii ATCC 51432 assessed as inhibition in bacterial growth incubated for 20 to 24 hrs by CLSI based broth microdilution method. Type of data set: functional. In general terms: Broth dilution looks for growth in wells or tubes with falling amounts of substance.
Data set [2] relates to Klebsiella pneumoniae. Description: Antibacterial activity against Klebsiella pneumoniae ATCC 700603 assessed as inhibition in bacterial growth incubated for 20 to 24 hrs by CLSI based broth microdilution method. Type of data set: functional.
The test system of data set [3] is Escherichia coli. The experiment in a line: Antibacterial activity against Escherichia coli ATCC 25922 assessed as inhibition in bacterial growth incubated for 20 to 24 hrs by CLSI based broth microdilution method. The class given is functional. As to conditions: time 20-24 hrs.
Data set [4] has as its system Klebsiella pneumoniae. Description: Antibacterial activity against Klebsiella pneumoniae ATCC 10031 assessed as inhibition in bacterial growth incubated for 20 to 24 hrs by CLSI based broth microdilution method. The class given is functional. The settings on record: time 20-24 hrs.
Data set [5] relates to Staphylococcus aureus. Description: Antibacterial activity against Staphylococcus aureus ATCC 29213 assessed as inhibition in bacterial growth incubated for 20 to 24 hrs by CLSI based broth microdilution method. Type of data set: functional. The settings on record: time 20-24 hrs.
The subject of data set [6] is Escherichia coli. The experiment in a line: Antibacterial activity against Escherichia coli K-12 BW25113 deltaTolC assessed as inhibition in bacterial growth incubated for 20 to 24 hrs by CLSI based broth microdilution method. Type of data set: functional. The settings on record: time 20-24 hrs.
The target of a further data set is DNA gyrase (Escherichia coli, UniProt P0AES4+P0AES6). Description: Inhibition of Escherichia coli DNA gyrase incubated for 80 mins by Transcreener ADP2 FI assay. Type of data set: protein-complex assay.
Data set [7] concerns Escherichia coli. The experiment in a line: Antibacterial activity against Escherichia coli K-12 BW25113 assessed as inhibition in bacterial growth incubated for 20 to 24 hrs by CLSI based broth microdilution method. Type of data set: functional.
In data set [8] the test system is Klebsiella pneumoniae. Description: Antibacterial activity against Klebsiella pneumoniae ATCC BAA-2146 assessed as inhibition in bacterial growth incubated for 20 to 24 hrs by CLSI based broth microdilution method. Type of data set: functional.
The test system of data set [9] is Klebsiella pneumoniae. Description: Antibacterial activity against Klebsiella pneumoniae ATCC BAA-1705 assessed as inhibition in bacterial growth incubated for 20 to 24 hrs by CLSI based broth microdilution method. As to conditions: time 20-24 hrs. The class given is functional.
A short description of data set [10]: Inhibition of Escherichia coli topoisomerase 4 incubated for 120 mins by Transcreener ADP2 FI assay.
Data set [11] has as its system Pseudomonas aeruginosa. Description: Antibacterial activity against Pseudomonas aeruginosa NCTC 13437 assessed as inhibition in bacterial growth incubated for 20 to 24 hrs by CLSI based broth microdilution method. Type of data set: functional.
Data set [12] has as its system Acinetobacter baumannii. The experiment in a line: Antibacterial activity against Acinetobacter baumannii ATCC 19606 assessed as inhibition in bacterial growth incubated for 20 to 24 hrs by CLSI based broth microdilution method. Type of data set: functional. As to conditions: time 20-24 hrs.
In data set [13] the test system is Escherichia coli. The experiment in a line: Antibacterial activity against Escherichia coli ATCC BAA-2340 assessed as inhibition in bacterial growth incubated for 20 to 24 hrs by CLSI based broth microdilution method. Type of data set: functional.
Data set [14] concerns Escherichia coli. Description: Antibacterial activity against Escherichia coli ATCC 35218 assessed as inhibition in bacterial growth incubated for 20 to 24 hrs by CLSI based broth microdilution method. Type of data set: functional.
Data set [15] concerns Pseudomonas aeruginosa. Description: Antibacterial activity against Pseudomonas aeruginosa NCTC 11451 assessed as inhibition in bacterial growth incubated for 20 to 24 hrs by CLSI based broth microdilution method. The class given is functional.
Data set [16] relates to Acinetobacter baumannii. The experiment in a line: Antibacterial activity against Acinetobacter baumannii ATCC BAA-747 assessed as inhibition in bacterial growth incubated for 20 to 24 hrs by CLSI based broth microdilution method. The class given is functional.
For data set [17], the system named is Staphylococcus aureus. Description: Antibacterial activity against Staphylococcus aureus ATCC BAA-1556 assessed as inhibition in bacterial growth incubated for 20 to 24 hrs by CLSI based broth microdilution method. Type of data set: functional.
In data set [18] the test system is Pseudomonas aeruginosa. Description: Antibacterial activity against Pseudomonas aeruginosa ATCC 27853 assessed as inhibition in bacterial growth incubated for 20 to 24 hrs by CLSI based broth microdilution method. The class given is functional. As to conditions: time 20-24 hrs.
For data set [19], the target named is T1, hERG (KCNH2) (Homo sapiens, UniProt Q12809). Description: Inhibition of hERG potassium channel expressed in CHO cells at 10 uM by electrophysiological patch clamp assay relative to control. Type of data set: toxicity, cell-based. The settings on record: CHO cells expressing hERG. In general terms: The hERG channel carries a current that helps repolarise heart muscle cells.
T1 sequence (Q12809 whole entry): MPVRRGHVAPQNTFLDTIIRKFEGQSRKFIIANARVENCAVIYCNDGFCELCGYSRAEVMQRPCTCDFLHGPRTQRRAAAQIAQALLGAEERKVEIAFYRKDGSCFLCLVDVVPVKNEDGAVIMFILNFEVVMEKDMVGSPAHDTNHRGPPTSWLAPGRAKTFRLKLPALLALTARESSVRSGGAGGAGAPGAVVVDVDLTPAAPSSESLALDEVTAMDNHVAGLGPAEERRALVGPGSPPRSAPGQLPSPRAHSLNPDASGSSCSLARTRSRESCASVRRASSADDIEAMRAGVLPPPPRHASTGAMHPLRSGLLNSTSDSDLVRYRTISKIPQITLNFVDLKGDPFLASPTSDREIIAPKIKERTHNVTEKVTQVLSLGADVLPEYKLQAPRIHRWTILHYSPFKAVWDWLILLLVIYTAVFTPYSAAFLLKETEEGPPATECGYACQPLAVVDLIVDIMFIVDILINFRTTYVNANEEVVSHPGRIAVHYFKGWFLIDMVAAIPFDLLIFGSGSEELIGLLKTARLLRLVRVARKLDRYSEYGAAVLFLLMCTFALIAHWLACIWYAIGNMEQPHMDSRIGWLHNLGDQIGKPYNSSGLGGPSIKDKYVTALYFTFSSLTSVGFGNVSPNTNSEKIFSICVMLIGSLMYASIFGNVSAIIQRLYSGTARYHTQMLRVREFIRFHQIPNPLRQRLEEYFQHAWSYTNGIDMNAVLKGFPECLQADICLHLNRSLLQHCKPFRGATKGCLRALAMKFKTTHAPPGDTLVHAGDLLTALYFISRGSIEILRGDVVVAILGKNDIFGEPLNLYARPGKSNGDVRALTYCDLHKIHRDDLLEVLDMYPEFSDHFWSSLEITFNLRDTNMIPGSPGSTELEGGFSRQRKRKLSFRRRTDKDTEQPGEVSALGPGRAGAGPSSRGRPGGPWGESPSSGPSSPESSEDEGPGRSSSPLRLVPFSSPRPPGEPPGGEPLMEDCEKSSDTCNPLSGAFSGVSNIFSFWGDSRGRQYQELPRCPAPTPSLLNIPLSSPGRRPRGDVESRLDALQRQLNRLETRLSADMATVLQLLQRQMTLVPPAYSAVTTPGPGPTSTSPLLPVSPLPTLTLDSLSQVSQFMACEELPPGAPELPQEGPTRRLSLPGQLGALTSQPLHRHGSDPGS

The target in data set [20] is T1, hERG (KCNH2). The experiment in a line: (§1) Inhibition of hERG potassium channel expressed in CHO cells by electrophysiological patch clamp assay. The class given is toxicity, cell-based. The settings on record: human, CHO cells expressing hERG.
The target of data set [21] is T1, hERG (KCNH2). Description: Inhibition of hERG potassium channel expressed in CHO cells at 1 uM by electrophysiological patch clamp assay relative to control. Type of data set: toxicity, cell-based. The settings on record: CHO cells expressing hERG.
Data set [22] addresses Voltage-gated inwardly rectifying potassium channel KCNH2 (Homo sapiens, UniProt Q12809). The description is as §1. The class given is toxicity, cell-based. As to conditions: for IC20: human, cho.
Where [23] appears, read: Acinetobacter baumannii, ATCC 51432, time 20-24 hrs, read-out: MIC.
The mark [24] stands for this setting: Klebsiella pneumoniae, ATCC 700603, time 20-24 hrs, read-out: MIC.
Setting [25] is: Staphylococcus aureus, ATCC 29213, read-out: MIC.
Setting [26] is: Escherichia coli, K-12 BW25113, time 20-24 hrs, read-out: MIC.
[27] abbreviates: Klebsiella pneumoniae, ATCC BAA-2146, time 20-24 hrs, read-out: MIC.
Where [28] appears, read: Pseudomonas aeruginosa, NCTC 13437, time 20-24 hrs, read-out: MIC.
The mark [29] stands for this setting: Escherichia coli, ATCC BAA-2340, time 20-24 hrs, read-out: MIC.
[30] abbreviates: Escherichia coli, ATCC 35218, time 20-24 hrs, read-out: MIC.
Where [31] appears, read: Pseudomonas aeruginosa, NCTC 11451, time 20-24 hrs, read-out: MIC.
[32] abbreviates: Acinetobacter baumannii, ATCC BAA-747, time 20-24 hrs, read-out: MIC.
The mark [33] stands for this setting: Staphylococcus aureus, ATCC BAA-1556, time 20-24 hrs, read-out: MIC.

Converted amounts (≈) assume the structure as drawn.

Sequence of Voltage-gated inwardly rectifying potassium channel KCNH2 (Q12809 whole entry): as above

Take `CN(C(=O)CN1CCC1)c1cc(F)c2c(c1)CC(CNCCC1CN(c3cnc4c(n3)NC(=O)CO4)C(=O)O1)C2` (stereo not drawn): the MIC in the data set with Acinetobacter baumannii [1] (setting [23]) is more than 64 mg/L; in the data set on Klebsiella pneumoniae [2] (setting [24]), more than 64 mg/L; in the data set on Escherichia coli [3] it was 32 mg/L (≈ 57.8 µM); in the data set with Klebsiella pneumoniae [4] it was more than 64 mg/L; in the data set on Staphylococcus aureus [5] (setting [25]) it was 64 mg/L (≈ 116 µM); in the data set with Escherichia coli [6], 1 mg/L (≈ 1.81 µM). In addition, the MIC is 16 mg/L (≈ 28.9 µM) in the data set with Escherichia coli [7] (setting [26]); more than 64 mg/L in the data set on Klebsiella pneumoniae [8] (setting [27]); more than 64 mg/L in the data set with Klebsiella pneumoniae [9]; 64 mg/L (≈ 116 µM) with Pseudomonas aeruginosa [11] (setting [28]); more than 64 mg/L in the data set with Acinetobacter baumannii [12]; 64 mg/L (≈ 116 µM) in the data set on Escherichia coli [13] (setting [29]). Further, the MIC with Escherichia coli [14] (setting [30]) is 32 mg/L (≈ 57.8 µM); in the data set on Pseudomonas aeruginosa [15] (setting [31]) it was more than 64 mg/L; in the data set on Acinetobacter baumannii [16] (setting [32]) it was more than 64 mg/L; in the data set on Staphylococcus aureus [17] (setting [33]), more than 64 mg/L; in the data set with Pseudomonas aeruginosa [18], 64 mg/L (≈ 116 µM). Moreover, the IC50 against DNA gyrase was 1.1 µM; in data set [10] it was 0.15 µM.
Take `N#Cc1cccc2c1CC(CNCCC1CN(c3ccc4c(n3)NC(=O)CO4)C(=O)O1)C2` (stereo not drawn): the MIC with Acinetobacter baumannii [1] (setting [23]) is not above 0.06 mg/L; in the data set with Klebsiella pneumoniae [2] (setting [24]) it was 1 mg/L (≈ 2.31 µM); in the data set with Escherichia coli [3], not above 0.06 mg/L; in the data set on Klebsiella pneumoniae [4] it was not above 0.06 mg/L; in the data set on Staphylococcus aureus [5] (setting [25]), not above 0.06 mg/L; with Escherichia coli [6], not above 0.06 mg/L. Further, the MIC with Escherichia coli [7] (setting [26]) is not above 0.06 mg/L; in the data set on Klebsiella pneumoniae [8] (setting [27]) it was 4 mg/L (≈ 9.23 µM); in the data set on Klebsiella pneumoniae [9], 1 mg/L (≈ 2.31 µM); in the data set on Pseudomonas aeruginosa [11] (setting [28]), 0.5 mg/L (≈ 1.15 µM); in the data set on Acinetobacter baumannii [12], 0.125 mg/L (≈ 0.288 µM); with Escherichia coli [13] (setting [29]), not above 0.06 mg/L. For the same compound, the MIC is 0.125 mg/L (≈ 0.288 µM) in the data set with Escherichia coli [14] (setting [30]); 1 mg/L (≈ 2.31 µM) in the data set on Pseudomonas aeruginosa [15] (setting [31]); not above 0.06 mg/L with Acinetobacter baumannii [16] (setting [32]); not above 0.06 mg/L in the data set on Staphylococcus aureus [17] (setting [33]); 0.5 mg/L (≈ 1.15 µM) in the data set with Pseudomonas aeruginosa [18]. Moreover, on hERG (KCNH2) [19], 10 µM produced 99% inhibition. On hERG (KCNH2) [20], this compound displayed an IC20 of 0.45 µM. The same compound yielded an IC50 in data set [10] of 0.004 µM. In addition, on hERG (KCNH2) [21], the inhibition at 1 µM worked out at 55%.
`C[C@@H](C(=O)Nc1cc(F)c2c(c1)CC(CNCCC1CN(c3cnc4c(n3)NC(=O)CO4)C(=O)O1)C2)N(C)C` (stereo in doubt; 2j): the MIC with Staphylococcus aureus [5] turned out to be 0.25 mg/L (≈ 0.462 µM); with Escherichia coli [7] (time 20-24 hrs) it was 0.125 mg/L (≈ 0.231 µM); in the data set with Pseudomonas aeruginosa [11] (time 20-24 hrs), 2 mg/L (≈ 3.69 µM); in the data set on Escherichia coli [13] (time 20-24 hrs), 0.25 mg/L (≈ 0.462 µM); in the data set on Escherichia coli [14] (time 20-24 hrs) it was 0.25 mg/L (≈ 0.462 µM); in the data set on Acinetobacter baumannii [16] (time 20-24 hrs), 0.5 mg/L (≈ 0.923 µM). In data set [22], this compound had an IC50 of 178 µM. In [22], this compound showed an IC20 of 66 µM.
Turning to `O=C(O)COc1cc(F)c2c(c1)CC(CNCCC1CN(c3ccc4c(n3)NC(=O)CO4)C(=O)O1)C2` (stereo not drawn), the MIC in the data set on Acinetobacter baumannii [1] (setting [23]) is more than 64 mg/L; in the data set on Klebsiella pneumoniae [2] (setting [24]), more than 64 mg/L; with Escherichia coli [3] it was more than 64 mg/L; in the data set with Klebsiella pneumoniae [4], 16 mg/L (≈ 32 µM); with Staphylococcus aureus [5] (setting [25]), more than 64 mg/L; with Escherichia coli [6], 8 mg/L (≈ 16 µM). The MIC in the data set on Escherichia coli [7] (setting [26]), in the data set with Klebsiella pneumoniae [8] (setting [27]), in the data set on Klebsiella pneumoniae [9], with Pseudomonas aeruginosa [11] (setting [28]), in the data set on Acinetobacter baumannii [12] and in the data set on Escherichia coli [13] (setting [29]) was more than 64 mg/L in each case. The MIC with Escherichia coli [14] (setting [30]), with Pseudomonas aeruginosa [15] (setting [31]), in the data set with Acinetobacter baumannii [16] (setting [32]), in the data set on Staphylococcus aureus [17] (setting [33]) and in the data set with Pseudomonas aeruginosa [18] was more than 64 mg/L in each case. In addition, the results for the IC50 (against DNA gyrase; in [10]) were 0.6 µM and 0.37 µM, respectively.
As to `C[C@H](C(=O)Nc1cc(F)c2c(c1)CC(CNCCC1CN(c3cnc4c(n3)NC(=O)CO4)C(=O)O1)C2)N(C)C` (stereo in doubt; 2g), the MIC stood at 4 mg/L (≈ 7.39 µM) in the data set on Acinetobacter baumannii [1] (time 20-24 hrs); 1 mg/L (≈ 1.85 µM) in the data set on Klebsiella pneumoniae [2] (time 20-24 hrs); 8 mg/L (≈ 14.8 µM) in the data set with Klebsiella pneumoniae [8] (time 20-24 hrs); 0.125 mg/L (≈ 0.231 µM) with Escherichia coli [13] (time 20-24 hrs); 0.125 mg/L (≈ 0.231 µM) in the data set with Escherichia coli [14] (time 20-24 hrs); 2 mg/L (≈ 3.69 µM) in the data set on Pseudomonas aeruginosa [15] (time 20-24 hrs). Further, the MIC in the data set on Staphylococcus aureus [17] (time 20-24 hrs) stood at 0.5 mg/L (≈ 0.923 µM). The figures for the IC50 (in data set [22]; at DNA gyrase; in data set [10]) were 251 µM, 0.026 µM and 0.013 µM, respectively. Besides, in [22], the 20% effect level (IC20) was put at 81 µM.
